According to paper PMC2410169, “N-hexanoyl-sphingomyelin potentiates in vitro doxorubicin cytotoxicity by enhancing its cellular influx” (British Journal of Cancer, 2004):
pEC50: −log10 of the molar value. Like-named read-outs stand apart in the source and are kept apart here.

Experiments:
BAEC [1] = assay: cells; conditions: Bos taurus
Method: For viability assessment, cells were cultured in flat-bottom 96-well plates. After experimental treatments, 100 μg of the mitochondrial dehydrogenase substrate MTT was added to each well ([Carmichael et al, 1987]). Cells were then incubated for 60 min at 37°C. After centrifugation (3000 rpm, 10 min) supernatants were removed. The precipitated blue formazan products were then dissolved in 100 μl DMSO and absorbencies were read in a Bio-Tek Instruments EL 340 photospectrometric microplate reader at 540 nm. Background absorbencies were subtracted and values from untreated control cells were set at 100% viability.
After washing away remaining extracellular drug and lipid, cells were cultured for another 48 h. Viability was then assessed by the MTT assay, which relies on the fact that only mitochondria of viable cells have the capacity to convert the MTT substrate ([Carmichael et al, 1987]).

BAEC [2] = type: cell-based, bovine; conditions: Table 2; ATP depletion (2-deoxy-D-glucose + sodium azide, 90 min), no C6-SM
Method: (§1) For intracellular doxorubicin measurements, cells were cultured in flat-bottom 96-well plates. At confluence, cells were changed to a serum-free medium and exposed to 50 μM doxorubicin during 60 min (unless indicated otherwise). After washing with ice-cold PBS, cells were lysed in 1% (w v^−1) Triton X-100 in water. Native fluorescence intensities were then measured by a Perkin-Elmer Victor Wallac II fluorescence microplate reader, using λex 485 nm and λem 535 nm filters. Additional probes and drugs that were tested for cellular uptake during 60 min incubations, either in the absence or presence of lipid, were hydrazide-AF488 (35 μM, λex 485 nm, λem 535 nm), sulphorodamine-101 (400 μM, λex 355 nm, λem 620 nm), propidium iodide (300 μM, λex 355 nm, λem 535 nm), o-phtaldialdehyde (1 mM, λex 485 nm, λem 535 nm), topotecan (30 μM, λex 355 nm, λem 535 nm), epirubicin (50 μM, λex 485 nm, λem 535 nm), bisbenzimidine (10 μM, λex 355 nm, λem 460 nm), camptothecin (30 μM, λex 355 nm, λem 460 nm), daunorubicin (25 μM, λex 485 nm, λem 535 nm) and idarubicin (20 μM, λex 485 nm, λem 535 nm).

A431 cells = assay: Cell viability, MTT assay; type: cell-based, human; conditions: Homo sapiens, 60 min exposure, 48 h further culture, read-out: Doxorubicin EC50
Method: After centrifugation (3000 rpm, 10 min) supernatants were removed.

[3] = system: kidney fibroblasts from Mrp1/Mdr1a/Mdr1b triple knockout mice; assay: Cellular doxorubicin accumulation in ABC-transporter knockout fibroblasts; type: cell-based; conditions: Table 2, no C6-SM, relative to control fibroblasts
Method: The following cell types were cultured in Dulbecco's modified Eagle's medium (DMEM) containing 10% (v v^−1) foetal calf serum: primary bovine aortic endothelial cells (BAEC; passage 14–19), kindly provided by Dr A Haimovitz-Friedman (Memorial Sloan-Kettering Cancer Center, New York City NY, USA); MCF-7, KB and A431 carcinoma cells, purchased from the American Type Culture Collection (Manassas VA, USA); SV40 large-T antigen-immortalised kidney fibroblasts from Mrp1/Mdr1a/Mdr1b triple knockout mice and control renal fibroblasts ([Wijnholds et al, 2000]; kindly provided by Dr AH Schinkel, The Netherlands Cancer Institute, Amsterdam). […] All culture media were supplemented with 100 U ml^−1 penicillin, 100 μg ml^−1 streptomycin and 4 mM L-glutamine. For intracellular doxorubicin measurements, cells were cultured in flat-bottom 96-well plates. […] After washing with ice-cold PBS, cells were lysed in 1% (w v^−1) Triton X-100 in water. Native fluorescence intensities were then measured by a Perkin-Elmer Victor Wallac II fluorescence microplate reader, using λex 485 nm and λem 535 nm filters.

BAEC [4] = assay: Cellular uptake of fluorescent drugs and probes with or without C6-SM; type: cell-based, bovine; conditions: 10 μM C6-SM, 60 min
Method: as §1

[5] = Lipophilicity: 1-octanol/water partitioning; type: physicochemical; conditions: 1-octanol/water partition ratio
Method: Partitioning of 10–50 μM drug or probe was monitored in a two-phase system consisting of 1 ml 1-octanol and 1 ml water. After addition of the compound, tubes were vortexed and centrifuged (3000 rpm, 5 min, 20°C). Aliquots of both the organic and the aqueous phases were taken for fluorimetric quantification, as described under Cellular drug accumulation. As a measure of lipophilicity, the 1-octanol/water partitioning ratio was calculated for each compound and expressed on a log scale ([Washington et al, 2001]).

## COc1cccc2c1C(=O)c1c(O)c3c(c(O)c1C2=O)C[C@@](O)(C(=O)CO)C[C@@H]3O[C@H]1C[C@H](N)[C@H](O)[C@H](C)O1 [Doxorubicin, doxorubicin]
BAEC [1]; read-out: Doxorubicin EC50 for BAEC toxicity, absence of C6-SM, 60 min exposure, 48 h further culture
  pEC50: 5.40
BAEC [1]; read-out: Doxorubicin EC50 for BAEC toxicity, with 10 μM C6-SM, 60 min exposure, 48 h further culture
  pEC50: 6.22
BAEC [2]
  Doxorubicin (% of control±s.d.): 108.2±46.7 % of control
A431 cells; A-431, A431, with C6-SM
  pEC50: 6.89
A431 cells; A-431, A431, without C6-SM
  pEC50: 5.74
[3]
  Doxorubicin (% of control±s.d.): 101.7±14.3 % of control

## COc1cccc2c1C(=O)c1c(O)c3c(c(O)c1C2=O)C[C@@](O)(C(C)=O)C[C@@H]3O[C@H]1C[C@H](N)[C@H](O)[C@H](C)O1 [daunorubicin]
BAEC [4]
  Sensitivity towards C6-SM uptake enhancement: mostly insensitive to C6-SM
[5]
  Lipophilicity compared with doxorubicin: significantly higher

## CC(=O)[C@]1(O)Cc2c(O)c3c(c(O)c2[C@@H](O[C@H]2C[C@H](N)[C@H](O)[C@H](C)O2)C1)C(=O)c1ccccc1C3=O [idarubicin]
BAEC [4]
  Sensitivity towards C6-SM uptake enhancement: mostly insensitive to C6-SM
[5]
  Lipophilicity compared with doxorubicin: significantly higher
